# Where two headings read alike, the source gives them in different places.
# Legend:
# Nox2 = target: T1, Nox2 (Homo sapiens, UniProt P04839); assay: Cell-free superoxide production in lysed COS-Nox2 cells / Nox2 cell homogenate, cytochrome C assay; assay type: biochemical
# T1 construct: expressed in transfected cells
# T1 sequence (P04839 2-570 limits assumed): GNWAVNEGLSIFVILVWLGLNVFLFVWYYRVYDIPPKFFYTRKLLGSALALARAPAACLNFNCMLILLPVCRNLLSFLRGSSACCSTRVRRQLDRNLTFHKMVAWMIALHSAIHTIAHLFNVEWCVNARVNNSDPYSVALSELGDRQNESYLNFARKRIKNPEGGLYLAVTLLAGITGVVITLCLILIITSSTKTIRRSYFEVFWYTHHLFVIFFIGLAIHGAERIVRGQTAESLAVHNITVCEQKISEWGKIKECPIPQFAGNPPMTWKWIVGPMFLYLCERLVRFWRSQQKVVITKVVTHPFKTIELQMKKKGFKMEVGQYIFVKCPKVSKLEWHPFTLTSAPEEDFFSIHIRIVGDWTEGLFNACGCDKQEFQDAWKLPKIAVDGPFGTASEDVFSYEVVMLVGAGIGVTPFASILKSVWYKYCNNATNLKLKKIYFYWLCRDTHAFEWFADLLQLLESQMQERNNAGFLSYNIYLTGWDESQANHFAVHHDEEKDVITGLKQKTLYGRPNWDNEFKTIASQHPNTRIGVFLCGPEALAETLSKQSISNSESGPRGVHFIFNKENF
# Protocol: COS-Nox2, COS-Nox1/NOXO1/NOXA1 and COS-22 cells were suspended to a concentration of 5×10^7 cells/ml in ice-cold disruption buffer (8 mM potassium, sodium phosphate buffer pH 7.0, 131 mM NaCl, 340 mM sucrose, 2 mM NaN3, 5 mM MgCl2, 1 mM EGTA, 1 mM EDTA and protease inhibitor cocktail) (Price et al., Blood, 2002, 99:2653-2661; Molshanski-Mor et al., Methods Mol. Biol., 2007, 412:385-428). The cells were lysed by freeze/thaw cycles (5 cycles), and passed through a 30-gauge needle 5 times to further lyse the cells. Cell disruption was confirmed by phase contrast microscopy. The cell lysate was centrifuged at 1000×g for 10 min at 4° C. to remove unbroken cells, nuclei and debris. Throughout all procedures, extreme care was taken to maintain the lysate at a temperature close to 0° C. Superoxide (O2^•−) production was calculated from the initial linear rate (over 10 min) of SOD-inhibitable cytochrome c reduction quantified at 550 nm using the extinction coefficient of 21.1 mM^−1 cm^−1 (Biotek Synergy 4 Hybrid Multi-Mode Microplate Reader). The oxidase assay buffer consisted of 65 mM sodium phosphate buffer (pH 7.0), 1 mM EGTA, 10 μM FAD, 1 mM MgCl2, 2 mM NaN3 and 0.2 mM cytochrome C. The components of the cell-free system were added in the following order: oxidase assay buffer, cell lysate (5×10^5 cell equivalents/well) and drugs at a final concentration as shown on individual graphs. The plates were placed on an orbital shaker to mix contents for 5 min at 120 movements/min at room temperature. LiDS, an established lipid activator of phagocyte cell-free system, was added at a concentration of 130 μM and O2^•− production was initiated by the addition of 180 μM NADPH.
# Cell-free activity in lysed COS-Nox2 cells was promising, since compound 7 was also able to inhibit O2^•− production in a system in which assembly of active Nox2 subunits is achieved by treatment with the anionic amphiphile LiDS (lithium dodecyl sulfate) and the reaction is initiated by cofactor NADPH (Molshanski-Mor et al., Methods Mol. Biol. 2007, 412:385-428). COS-Nox2 cell lysate was preincubated with various concentrations of compound 7 for 15 min at 25° C. After the addition of 130 μM LiDS, O2^•− production was initiated by the addition of 180 μM NADPH and measured by the initial linear rate of SOD-inhibitable cytochrome C reduction. O2^•− production is expressed as nmol O2^•−/min/10^7 cell equivalents.
# Cells were suspended to a concentration of 5×10^7 cells/ml in ice-cold disruption buffer (8 mM potassium, sodium phosphate buffer pH 7.0, 131 mM NaCl, 340 mM sucrose, 2 mM NaN3, 5 mM MgCl2, 1 mM EGTA, 1 mM EDTA and protease inhibitor cocktail). The cells were lysed by freeze/thaw cycles (5 cycles), and passed through a 30-gauge needle five times to further lyse the cells. Cell disruption was confirmed by phase contrast microscopy. The cell lysate was centrifuged at 1000×g for 10 min at 4° C. to remove unbroken cells, nuclei and debris. Throughout all procedures, extreme care was taken to maintain the lysate at a temperature close to 0° C.
# Superoxide (O2^•−) production from cell homogenates was calculated from the initial linear rate (over 10 min) of SOD-inhibitable cytochrome c reduction quantified at 550 nm using the extinction coefficient of 21.1 mM-1 cm-1 (Biotek Synergy 4 Hybrid Multi-Mode Microplate Reader). The oxidase assay buffer consisted of 65 mM sodium phosphate buffer (pH 7.0), 1 mM EGTA, 10 μM FAD, 1 mM MgCl2, 2 mM NaN3 and 0.2 mM cytochrome C.
# cells = assay: Cytotoxicity assay (CytoTox-Glo); assay type: cell-based; settings: highest concentration tested (25 and 50 μM tested, FIG. 5)
# Protocol: The cytotoxic effect of compounds was tested using CytoTox-Glo kit (Promega, Madison, Wis.). This assay uses a luminogenic peptide substrate, the AAF-Glo™ Substrate, to measure dead-cell protease activity, which is released from cells that have lost membrane integrity. Cells were plated in 384-well plate at 2.5×10^3 cells/well in OPTIMEM, incubated for 15 min with the compounds at various concentrations and then carried out dead cell measurements according to manufacturer protocol. […] signals before and after the addition of digitonin were used to calculate the % of dead cells in each independent well.
# Another undesirable side effect would be the reduction of ROS production in the assays due to cell death rather than an inhibition of Nox2. To verify that this was not the case for these tetrahydroisoquinolines, the effect of various concentrations of the compounds on cell viability was determined using a commercially available CytoTox-Glo assay (Promega). This assay measures the concentration of proteases released from cells that have lost membrane integrity (i.e., dead cells). Data are expressed as % of live cells in each independent well (=100−% dead cells).
# [1] = cell-free system, data not shown, read-out: IC50 in a cell-free system
SMILES,Effect on cell viability (cells),IC50 (Nox2; [1]),also measured
"C=C(C)CC1NC2CC(C)(C)C1c1c(Br)cccc12 (racemic) [Compound 7, (±)-(1S,4R,9S)-5-Bromo-3,3-dimethyl-9-(2-methylallyl)-1,2,3,4-tetrahydro-1,4-(epimino-methano)-naphthalene]",had any effect on cell viability,–,"LiDS-stimulated O2•− generation (Nox2; 6.3 μM compound, lysed COS-Nox2 cells, 130 μM LiDS, 180 μM NADPH): almost non-stimulated levels"
"C=C(C)CC1C2c3c(Br)cccc3C(CC2(C)C)N1CCCCC (racemic) [Compound 11g, (±)-(1S,4R,9S)-5-Bromo-3,3-dimethyl-9-(2-methylallyl-10-pentyl-1,2,3,4-tetrahydro-1,4-(epiminomethano)naphthalene]",–,~30 nM,"IC50 (Nox2; Nox2 cell homogenate stimulated with LiDS, read-out: IC50 in ROS production by Nox2 cell homogenate): 32.4 ± 9 nM; IC50 in cell homogenate lower than that for whole cells (Nox2; homogenate vs whole cells): 100 fold"
"C=C(C)CC1C2c3c(Br)cccc3C(CC2(C)C)N1Cc1cccs1 (racemic) [Compound 11h, (±)-(1S,4R,9S)-5-Bromo-3,3-dimethyl-9-(2-methylallyl)-10-(thiophen-2-ylmethyl)-1,2,3,4-tetrahydro-1,4-(epiminomethano)naphthalene]",–,~30 nM,–
CC(C)CC1NC2CC(C)(C)C1c1c(Br)cccc12 (racemic) [Compound 13],had any effect on cell viability,–,–
C=C(C)C[C@@H]1N[C@H]2CC(C)(C)[C@@H]1c1c(Br)ccc(Br)c12 [Compound 9],had any effect on cell viability,–,–

# — patent US10906876B2, “Tetrahydroisoquinolines as selective NADPH oxidase 2 inhibitors” (University of Pittsburgh—Of the Commonwealth System of …, priority 2013, dated 2021)
